Eleven molecules from US9550796B2, “Pyrrolopyrrolone derivatives and their use as BET inhibitors” (NOVARTIS AG, priority 2013, dated 2017) can be followed below.

pIC50: −log10 of the molar value.

The target of one assay is BRD3 (Homo sapiens (Human), UniProt Q15059). Description: TR-FRET in-vitro binding assay for BRD3. The settings on record: 45 nM His-Brd3(20-477), acetyl-histone H4 (AcK 5, 8, 12, 16) peptide. In outline: (§1)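 Incubation at 30° C lasted 35 min, followed by TR-FRET measurement; each compound was tested as 8 single-point concentrations.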
BRD3, sequence (Q15059 20-477): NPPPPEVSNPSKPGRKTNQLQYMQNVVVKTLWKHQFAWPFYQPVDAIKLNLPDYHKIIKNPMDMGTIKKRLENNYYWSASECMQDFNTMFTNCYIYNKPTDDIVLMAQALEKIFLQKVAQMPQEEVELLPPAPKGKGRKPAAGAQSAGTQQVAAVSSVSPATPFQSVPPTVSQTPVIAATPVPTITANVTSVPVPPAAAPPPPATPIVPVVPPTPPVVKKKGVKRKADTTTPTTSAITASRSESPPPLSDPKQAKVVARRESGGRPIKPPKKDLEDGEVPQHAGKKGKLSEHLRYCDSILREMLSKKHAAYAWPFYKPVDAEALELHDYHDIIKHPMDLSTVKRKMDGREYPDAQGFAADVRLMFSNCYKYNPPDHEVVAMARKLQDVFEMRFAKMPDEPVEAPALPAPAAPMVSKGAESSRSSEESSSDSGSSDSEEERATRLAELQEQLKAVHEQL
The next assay concerns MV-4-11. Description: Cell growth inhibition assay (CellTiter-Glo), MV-4-11. It counts as cell-based, human. The settings on record: MV-4-11 cells, 4 days; for GI50: Homo sapiens, MV4-11, 96 h, half-maximal growth inhibition; for MV-4-11 TGI: total growth inhibition. In outline:
(§2)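 Cells were treated with 3-fold serial dilutions of compound starting at 10 μM for 4 days at 37 °C and 5% CO2, and viability was then read as ATP by CellTiter-Glo luminescence. Signals were background- and day 0-corrected against 0.1% DMSO vehicle (100%) and medium (−100%). IC50 and TGI came from four-parameter fits.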
(Cellular ATP, detected with luciferase, serves as a proxy for viable cell number.)

The next assay has as its target BRD2 (Homo sapiens (Human), UniProt P25440). Description: TR-FRET in-vitro binding assay for BRD2. The settings on record: 45 nM His-Brd2(60-472), acetyl-histone H4 (AcK 5, 8, 12, 16) peptide. The protocol:
TR-FRET In-Vitro Binding Assays for BRD2, BRD3, and BRD4: All assays were performed in 384-well microtiter plates. […] Liquid handling and incubation steps were done on an Innovadyne Nanodrop Express equipped with a robotic arm (Thermo CatX, Perkin Elmer/Caliper Twister II) and an incubator (Liconic STX40, Thermo Cytomat 2C450). The assay plates were prepared by addition of 50 nl per well of compound solution in 90% DMSO HummingBird nanodispenser (Zinsser Analytic). […] Reactions were incubated at 30° C. for 35 minutes. […] After 35 minutes incubation at 30° C., plates were measured in a Perkin Elmer EnVision multilabel reader. […] The stock solutions were stored at […] if not used immediately. For the test procedure the vials were defrosted and identified by a scanner whereby a working sheet was generated that guided the subsequent working steps. Compound dilutions were made in 96 well plates. This format enabled the assay of maximally […] at 8 concentrations (single points) including 4 reference compounds, if desired (known BET inhibitors from the prior art, for this and other assays of the type disclosed herein). The dilution protocol included the production of “pre-dilution plates”, “master plates” and “assay plates”. Polypropylene 96-well plates were used as pre-dilution plates. […] All dilution steps were done on a HamiltonSTAR robot. […] Identical “assay plates” were then prepared by pipetting 50 nL each of compound dilutions of the “master plates” into 384-well “assay plates” by means of a HummingBird 384-channel dispenser. These plates were used directly for the assay which was performed in a total volume of 13.55 μL.

For another assay, the target named is BRD4 (Homo sapiens (Human), UniProt O60885). Briefly: TR-FRET in-vitro binding assay for BRD4. The settings on record: 45 nM His-Brd4(44-477), acetyl-histone H4 (AcK 5, 8, 12, 16) peptide. In outline: as §1
For the next assay, the system named is K-562. Description: Cell growth inhibition assay (CellTiter-Glo), K-562. It counts as cell-based, human. The following applies: K-562 cells, 4 days; for GI50: Homo sapiens, K562, 96 h, half-maximal growth inhibition; for K-562 TGI: total growth inhibition. Put shortly: as §2
Another assay deals with THP-1. Briefly: Cell growth inhibition assay (CellTiter-Glo), THP-1. Format: cell-based, human. The settings on record: THP-1 cells, 4 days; for GI50: Homo sapiens, 96 h, half-maximal growth inhibition; for THP-1 TGI: total growth inhibition. In outline: as §2
Another assay concerns the target CREBBP (Homo sapiens (Human), UniProt Q92793). Description: AlphaScreen in-vitro binding assay for CREBBP. The following applies: 324 nM His-CREBBP (1081-1197), acetyl-histone H4 (AcK 5, 8, 12) peptide. Put shortly: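 IC50 values were derived by non-linear regression of percent inhibition across 8 compound concentrations. Protein was His-tagged CREBBP bromodomain (1081-1197), peptide acetyl-histone H4 (AcK 5, 8, 12), in HEPES pH 7.5 buffer. Read-out was AlphaScreen with Ni-chelate acceptor and streptavidin donor beads, 35 min at 30° C then 60 min at RT.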
On the technique in general: Alpha assays give light when donor and acceptor beads are brought close together.

CREBBP, sequence (Q92793 1081-1197): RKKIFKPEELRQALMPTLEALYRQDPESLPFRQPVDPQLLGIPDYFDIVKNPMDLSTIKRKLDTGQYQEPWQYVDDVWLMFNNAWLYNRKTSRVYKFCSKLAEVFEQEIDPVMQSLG
BRD2, sequence (P25440 60-472): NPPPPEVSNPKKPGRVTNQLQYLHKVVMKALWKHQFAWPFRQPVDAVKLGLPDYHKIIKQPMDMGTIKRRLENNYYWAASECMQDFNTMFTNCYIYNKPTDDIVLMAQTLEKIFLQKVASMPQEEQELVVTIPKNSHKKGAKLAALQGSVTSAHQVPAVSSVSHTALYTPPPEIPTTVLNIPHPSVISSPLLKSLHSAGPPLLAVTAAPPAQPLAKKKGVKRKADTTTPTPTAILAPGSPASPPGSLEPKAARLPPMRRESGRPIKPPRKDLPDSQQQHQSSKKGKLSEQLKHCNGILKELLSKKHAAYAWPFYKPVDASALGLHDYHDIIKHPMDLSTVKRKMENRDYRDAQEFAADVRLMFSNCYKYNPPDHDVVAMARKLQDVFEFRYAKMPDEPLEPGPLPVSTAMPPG

As for `COc1ncccc1-c1cc2c([nH]1)C(c1ccc(Cl)cc1)N(c1cc(C)c3nnc(C)n3c1)C2=O` (centres unmarked) [Example 27, 6-(4-chlorophenyl)-5-(3,8-dimethyl-[1,2,4]triazolo[4,3-a]pyridin-6-yl)-2-(2-methoxypyridin-3-yl)-5,6-dihydropyrrolo[3,4-b]pyrrol-4(1H)-one], the pIC50 (commonly the IC50 on a negative log10 scale, so that one unit is a factor of ten) on BRD3 is 7.68; on BRD2 it was 7.43; at BRD4 it was 7.77. Moreover, the concentration for 50% growth inhibition (GI50) (in general, the concentration giving 50% growth inhibition) in the assay on MV-4-11 worked out at 22.5 nM; in the assay on K-562 it was 108 nM; with THP-1, 34.4 nM. Moreover, the “MV-4-11 TGI” value in the assay on MV-4-11 is 37.7 nM. Also, the “K-562 TGI” value with K-562 is >10000 nM. Moreover, in the assay on THP-1, the “THP-1 TGI” value was 88 nM.

For `COc1ncc(-c2cc3c(n2C)C(c2ccc(Cl)cc2)N(c2cc(C)c(=O)n(C)c2)C3=O)c(OC)n1` (centres unmarked) [Example 53, 6-(4-chlorophenyl)-2-(2,4-dimethoxypyrimidin-5-yl)-5-(1,5-dimethyl-6-oxo-1,6-dihydropyridin-3-yl)-1-methyl-5,6-dihydropyrrolo[3,4-b]pyrrol-4(1H)-one], the negative logarithm of the IC50 (pIC50) on BRD3 was 7.41; at BRD2, 7.39; on BRD4, 7.40.

`COc1cccc(C2c3c(ccn3C)C(=O)N2c2cc(C)c(=O)n(C)c2)c1` (centres unmarked) [Example 85, 5-(1,5-dimethyl-6-oxo-1,6-dihydropyridin-3-yl)-6-(3-methoxyphenyl)-1-methyl-5,6-dihydropyrrolo[3,4-b]pyrrol-4(1H)-one]: the pIC50 on BRD3 is 6.25; on BRD2, 6.13; at BRD4, 6.16.

At BRD3, `COc1cccc(C2c3c(ccn3C)C(=O)N2c2cc(Cl)c(=O)n(C)c2)c1` (centres unmarked) [Example 91, 5-(5-chloro-1-methyl-6-oxo-1,6-dihydropyridin-3-yl)-6-(3-methoxyphenyl)-1-methyl-5,6-dihydropyrrolo[3,4-b]pyrrol-4(1H)-one] gave a pIC50 of 6.18. In the assay on MV-4-11, the GI50 worked out at 371 nM and the “MV-4-11 TGI” value was determined as 641.5 nM. At BRD2, the pIC50 is 6.08. Further, in the assay on K-562, it took 1720 nM to inhibit growth by half (GI50) and the “K-562 TGI” value is >10000 nM. Further, in the assay with THP-1, the GI50 stood at 466 nM and the “THP-1 TGI” value was 1002.5 nM.

As to `Cc1cn(CCN(C)C)c2c1C(=O)N(c1cc(C)c3nnc(C)n3c1)C2c1ccc(Cl)cc1` (centres unmarked) [Example 128, 6-(4-chlorophenyl)-5-(3,8-dimethyl-[1,2,4]triazolo[4,3-a]pyridin-6-yl)-1-(2-(dimethylamino)ethyl)-3-methyl-5,6-dihydropyrrolo[3,4-b]pyrrol-4(1H)-one], the negative-log IC50 (pIC50) at BRD3 was 7.34; on CREBBP, 4.56; on BRD4, 7.35. For the same molecule, the GI50 in the assay with MV-4-11 came out at 39.5 nM; in the assay with K-562, 203 nM; in the assay with THP-1 it was 37.7 nM. Besides, the “MV-4-11 TGI” value in the assay with MV-4-11 was determined as 62.9 nM. In the assay on K-562, the “K-562 TGI” value is >10000 nM. In the assay with THP-1, the “THP-1 TGI” value came to 105.1 nM.

For the molecule `Cc1cn(CC(=O)N(C)C)c2c1C(=O)N(c1cc(C)c3nnc(C)n3c1)C2c1ccc(Cl)cc1` (centres unmarked) [Example 129, 2-(6-(4-chlorophenyl)-5-(3,8-dimethyl-[1,2,4]triazolo[4,3-a]pyridin-6-yl)-3-methyl-4-oxo-5,6-dihydropyrrolo[3,4-b]pyrrol-1(4H)-yl)-N,N-dimethylacetamide], the pIC50 on BRD3 is 7.24; at CREBBP, 5.09; on BRD4 it was 7.27. For the same molecule, the results for the GI50 in the assay on MV-4-11, in the assay with K-562 and in the assay on THP-1 were 96.3 nM, 492 nM and 188 nM, respectively. The “MV-4-11 TGI” value with MV-4-11 came to 143 nM. The “K-562 TGI” value in the assay with K-562 was >10000 nM. Moreover, the “THP-1 TGI” value with THP-1 is 439.5 nM.

As for `Cc1cc(N2C(=O)c3c(C4CNC4)cn(C)c3C2c2ccc(Cl)cc2)nc2c1nnn2C` (centres unmarked) [Example 130, 3-(azetidin-3-yl)-6-(4-chlorophenyl)-5-(3,7-dimethyl-3H-[1,2,3]triazolo[4,5-b]pyridin-5-yl)-1-methyl-5,6-dihydropyrrolo[3,4-b]pyrrol-4(1H)-one], the pIC50 on BRD3 is 7.89; at CREBBP it was 4.89; on BRD4, 7.92. The concentration for 50% growth inhibition (GI50) was < 3 nM with MV-4-11, 76.3 nM with K-562 and 12.9 nM with THP-1. Also, in the assay with MV-4-11, the “MV-4-11 TGI” value amounted to 6.21 nM. Further, in the assay on K-562, the “K-562 TGI” value came out at 3500 nM. Moreover, the “THP-1 TGI” value with THP-1 worked out at 31 nM.

As for `Cc1cc(N2C(=O)c3ccn(C)c3C2c2ccc(Cl)cc2)nn2c(C)nnc12` (centres unmarked) [Example 131, 6-(4-chlorophenyl)-5-(3,8-dimethyl-[1,2,4]triazolo[4,3-b]pyridazin-6-yl)-1-methyl-5,6-dihydropyrrolo[3,4-b]pyrrol-4(1H)-one], the pIC50 at BRD3 was 7.57; on CREBBP, < 4.43; on BRD4, 7.48. Besides, the GI50 came out at 9.21 nM with MV-4-11, 67.1 nM in the assay with K-562 and 9.76 nM with THP-1. Moreover, the “MV-4-11 TGI” value in the assay with MV-4-11 was 21.5 nM. Besides, in the assay with K-562, the “K-562 TGI” value is >10000 nM. Further, the “THP-1 TGI” value with THP-1 was 30.25 nM.

With `CNC(=O)c1cn(C)c2c1C(=O)N(c1cc(C)c3nnc(C(F)F)n3c1)C2c1ccc(Cl)cc1` (centres unmarked) [Example 132, 6-(4-chlorophenyl)-5-(3-(difluoromethyl)-8-methyl-[1,2,4]triazolo[4,3-a]pyridin-6-yl)-N,1-dimethyl-4-oxo-1,4,5,6-tetrahydropyrrolo[3,4-b]pyrrole-3-carboxamide], the pIC50 on BRD3 is 7.64; at CREBBP, 4.85; on BRD4, 7.80. Besides, the GI50 worked out at 9.57 nM in the assay on MV-4-11, 58.6 nM with K-562 and 10.1 nM in the assay on THP-1. The “MV-4-11 TGI” value with MV-4-11 was found to be 23.15 nM. Besides, the “K-562 TGI” value in the assay with K-562 was >10000 nM. The “THP-1 TGI” value with THP-1 amounted to 26 nM.

In the case of `CC(=O)Nc1cn(C)c2c1C(=O)N(c1cc(C)c3nnc(C(F)F)n3c1)C2c1ccc(Cl)cc1` (centres unmarked) [Example 133, N-(6-(4-chlorophenyl)-5-(3-(difluoromethyl)-8-methyl-[1,2,4]triazolo[4,3-a]pyridin-6-yl)-1-methyl-4-oxo-1,4,5,6-tetrahydropyrrolo[3,4-b]pyrrol-3-yl)acetamide], the pIC50 at BRD3 was 7.49; on CREBBP, 4.86; at BRD4, 7.54. Also, the GI50 came to 24.6 nM with MV-4-11, 92.7 nM with K-562 and 29.9 nM in the assay on THP-1. Besides, the “MV-4-11 TGI” value in the assay with MV-4-11 is 49.7 nM. Moreover, the “K-562 TGI” value with K-562 is >10000 nM. In addition, in the assay on THP-1, the “THP-1 TGI” value stood at 74.25 nM.

Consider `Cc1cc(N2C(=O)c3c(NC(=O)CN(C)C)cn(C)c3C2c2ccc(Cl)cc2)cn2c(C(F)F)nnc12` (centres unmarked) [Example 134, N-(6-(4-chlorophenyl)-5-(3-(difluoromethyl)-8-methyl-[1,2,4]triazolo[4,3-a]pyridin-6-yl)-1-methyl-4-oxo-1,4,5,6-tetrahydropyrrolo[3,4-b]pyrrol-3-yl)-2-(dimethylamino)acetamide], for which the negative logarithm of the IC50 (pIC50) was 7.54 at BRD3, < 4.43 on CREBBP and 7.66 at BRD4. For the same molecule, the GI50 in the assay with MV-4-11 amounted to 31.5 nM; in the assay on K-562 it was 181 nM; in the assay on THP-1, 34.2 nM. Also, the “MV-4-11 TGI” value in the assay on MV-4-11 was determined as 65 nM. In addition, the “K-562 TGI” value in the assay with K-562 was >10000 nM. For the same molecule, in the assay with THP-1, the “THP-1 TGI” value turned out to be 82.4 nM.
